{"source": "patent US9624520B2", "about": "“Biosynthetically generated pyrroline-carboxy-lysine and site specific protein modifications via chemical derivatization of pyrroline-carboxy-lysine and pyrrolysine residues” (Novartis AG, priority 2008, dated 2017)", "key": {"[1]": {"system": "HK100 cells", "assay": "Incorporation of other analogues and precursors into FAS-TE L2222TAG (Ni-NTA, SDS-PAGE, Bradford)", "type": "cell-based, Escherichia coli", "conditions": "for full-length protein production / PCL biosynthesis from precursor: Escherichia coli cells with pylB/pylC/pylD/pylS/pylT; for Bradford: 25 ml culture"}, "[2]": {"conditions": "pH 5"}, "[3]": {"target": "T1, pylS tRNA synthetase (Methanosarcina mazei, UniProt Q8PWY1)", "T1 construct": "expressed in transfected cells; host or cells: HEK293F", "T1 sequence (Q8PWY1 whole entry)": "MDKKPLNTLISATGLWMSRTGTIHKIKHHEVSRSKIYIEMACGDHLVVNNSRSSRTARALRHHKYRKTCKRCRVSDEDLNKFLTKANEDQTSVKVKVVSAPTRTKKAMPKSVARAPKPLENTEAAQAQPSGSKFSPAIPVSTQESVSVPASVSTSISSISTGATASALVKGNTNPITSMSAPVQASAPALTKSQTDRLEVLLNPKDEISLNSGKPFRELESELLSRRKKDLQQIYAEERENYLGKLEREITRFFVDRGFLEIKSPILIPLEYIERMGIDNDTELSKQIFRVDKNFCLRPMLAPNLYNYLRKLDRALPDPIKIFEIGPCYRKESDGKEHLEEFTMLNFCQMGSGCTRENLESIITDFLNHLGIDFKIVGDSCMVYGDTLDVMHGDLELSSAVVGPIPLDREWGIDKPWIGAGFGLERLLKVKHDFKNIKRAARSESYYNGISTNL", "assay": "Incorporation test with synthetic pyrrolysine analogues (full-length hRBP4 mutant #6)", "type": "cell-based", "conditions": "2 or 5 mM analogue, HEK293F cells with pylT/pylS only, Western blot and SDS-PAGE", "experimental": "In parallel to the above experiment, the production of full-length hRBP4 Phe122PCL protein (mutant #6) was also measured in the presence of a series of synthetic pyrrolysine analogues designed with an acetyl moiety for chemical derivatization after protein incorporation (FIG. 14B). The synthetic analogues were prepared as described in Example 19. pRSRBP was co-transfected into HEK293F cells with pCMVpyS which supplies one gene copy of pylT tRNA and of pylS tRNA synthetase. Depending on solubility, the synthetic analogues were added to the media either at 2 or 5 mM final concentration."}, "[4]": {"system": "HEK293F cells", "assay": "Incorporation test with putative PCL and pyrrolysine precursors (full-length hRBP4 Phe122PCL)", "type": "cell-based, human", "conditions": "5 mM precursor; HEK293F cells with pylT, pylS, pylB, pylC, pylD; Western blot and SDS-PAGE of Ni-NTA purified samples", "experimental": "The production of full-length hRBP4 Phe122PCL protein (mutant #6) was measured in the presence of the putative PCL precursor D-ornithine, D-proline, D-arginine, D-glutamic acid, 4-hydroxyl-D-proline and 2-pyrrolidone-5-carboxylic acid (FIGS. 13A and B, FIG. 14A). pRSRBP was co-transfected into HEK293F cells with pCMVpyS, pCMVpyB, pCMVpyC and pCMVpyD and cells were grown in the presence of 5 mM of the putative precursor (FIG. 14A) as described in Example 2."}, "[5]": {"system": "PylD", "assay": "NMR evaluation of Lys-Nε-D-Orn as substrate for PylD", "type": "biochemical, Methanosarcina mazei"}, "[6]": {"assay": "Compound stability (degradation measured by nuclear magnetic resonance spectroscopy)", "type": "physicochemical"}, "[7]": {"conditions": "purified FAS-TE from HK100 cells with pylB/pylC/pylD/pylS/pylT (lanes 5-11)"}}, "note": "Entries after “also recorded” stand apart in the source; their conditions may differ. Structures can show the parent of a compound that is named as a salt."}
{"smiles": "O=C(O)C1CCC=N1", "note": "(racemic) [P5C, Ammonium DL-1-pyrroline-5-carboxylate]", "values": [{"measurement": "full-length protein production / PCL biosynthesis from precursor", "setting": "[1]", "result": "failed to produce full-length protein; also recorded: not sufficient to support PCL biosynthesis"}, {"measurement": "Bradford", "setting": "[1]; [7]", "result": 0.075, "unit": "mg/25 ml"}]}
{"smiles": "N[C@@H](CCCCNC(=O)C1CCC=N1)C(=O)O", "note": "(mixture of isomers) [PCL-A, (S)-2-amino-6-(3,4-dihydro-2H-pyrrole-2-carboxamido) hexanoic acid]", "values": [{"measurement": "incorporation into protein (full-length FAS-TE)", "setting": "[1]; Escherichia coli cells with only pylS and pylT genes", "result": "incorporated with high efficiency; also recorded: incorporated into proteins"}, {"measurement": "Bradford", "setting": "[1]; purified FAS-TE from HK100 cells with pylS/pylT genes only (lanes 1-4)", "result": 0.539, "unit": "mg/25 ml"}]}
{"smiles": "Nc1ccc([N+](=O)[O-])cc1C(=O)c1ccccc1", "note": "[2-ANBP, 2-amino-5-nitro-benzophenone]", "values": [{"measurement": "solubility", "setting": "[2]", "result": "low solubility"}]}
{"smiles": "N[C@@H](CCCCNC(=O)OC1CCCC1)C(=O)O", "note": "[CYC, N-ε-cyclopentyloxycarbonyl-L-lysine, reference compound]", "values": [{"measurement": "production of full-length hRBP4 (mutant #6) in the presence of synthetic pyrrolysine analogue", "setting": "[3]", "result": "protein production to a level similar to D-ornithine; also recorded: measurable protein band"}]}
{"smiles": "N=C(N)NCCC[C@@H](N)C(=O)O", "note": "[D-arginine]", "values": [{"measurement": "production of full-length hRBP4 Phe122PCL protein in the presence of putative precursor", "setting": "[4]", "result": "above background protein production"}]}
{"smiles": "N[C@H](CCC(=O)O)C(=O)O", "note": "[D-glutamic acid]", "values": [{"measurement": "production of full-length hRBP4 Phe122PCL protein in the presence of putative precursor", "setting": "[4]", "result": "did not result in full-length protein production above background"}]}
{"smiles": "NCCC[C@@H](N)C(=O)O", "note": "[D-ornithine]", "values": [{"measurement": "production of full-length hRBP4 Phe122PCL protein in the presence of putative precursor", "setting": "[4]", "result": "measurable protein band"}]}
{"smiles": "O=C(O)[C@H]1CCCN1", "note": "[D-proline]", "values": [{"measurement": "production of full-length hRBP4 Phe122PCL protein in the presence of putative precursor", "setting": "[4]", "result": "did not result in full-length protein production above background"}]}
{"smiles": "NCCC[C@@H](N)C(=O)NCCCC[C@H](N)C(=O)O", "note": "[Lys-Nε-D-ornithine, (2S)-2-amino-6-((R)-2,5-diaminopentanamido)hexanoic acid]", "values": [{"measurement": "full-length protein production / PCL biosynthesis from precursor", "setting": "[1]; listed as Lys-Nε-D-Orn", "result": "resulted in protein expression with PCL incorporated at the amber codon"}, {"measurement": "full-length protein production / PCL biosynthesis from precursor", "setting": "[1]; listed as Lys-Nε-D-orn", "result": "substantial amounts of full-length protein"}, {"measurement": "Bradford", "setting": "[1]; [7]", "result": 1.66, "unit": "mg/25 ml"}, {"measurement": "substrate for PylD", "setting": "[5]", "result": "substrate for PylD"}]}
{"smiles": "O=C(O)C1=NCCC1", "note": "[P2C, 3,4-dihydro-2H-pyrrole-5-carboxylate]", "values": [{"measurement": "full-length protein production / PCL biosynthesis from precursor", "setting": "[1]", "result": "failed to produce full-length protein; also recorded: not sufficient to support PCL biosynthesis"}, {"measurement": "Bradford", "setting": "[1]; [7]", "result": 0.103, "unit": "mg/25 ml"}]}
{"smiles": "CC(=O)CC(=O)NCCCC[C@H](N)C(=O)O", "note": "[TU3000-016, (S)-2-amino-6-(3-oxobutanamido)hexanoic acid hydrochloride]", "values": [{"measurement": "compound stability", "setting": "[6]", "result": "not stable"}, {"measurement": "production of full-length hRBP4 (mutant #6) in the presence of synthetic pyrrolysine analogue", "setting": "[3]; hydrochloride", "result": "measurable but much lower incorporation; also recorded: viable substrate for the pylS tRNA synthetase"}]}
